Results on eleven compounds are retold here after ChEMBL document CHEMBL1201862, “PubChem BioAssay data set” (2004).

SMILES strings stand for the structures.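 Method: 48-hour compound exposure of cells in 96-well plates, five concentrations, linear interpolation of endpoints. GI50 = concentration required for 50% inhibition of growth.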 Calls of active or inactive are those of the source. No stated cut-off is given here; in the data, active = GI50 up to about 1.1 µM and inactive = higher.

What all share (test): DTP human tumour cell line panel, 48 h
Assay [1] has as its system MDA-MB-435.
Assay [2] concerns NCI-H23.
For assay [3], the system named is UACC-62.
The test system of assay [4] is SF-268.
Assay [5] concerns HCT-15.
For assay [6], the system named is HOP-92.
In assay [7] the test system is EKVX.
Assay [8] has as its system RPMI-8226.
Assay [9] concerns RXF 393.
Assay [10] relates to HL-60.
In assay [11] the test system is IGROV-1.
Assay [12] concerns UACC-257.
The subject of assay [13] is COLO 205.
Assay [14] has as its system TK-10.
Assay [15] has as its system T47D.
In assay [16] the test system is K562.
The subject of assay [17] is NCI/ADR-RES.
The test system of assay [18] is BT-549.
Assay [19] concerns SK-MEL-5.
In assay [20] the test system is SK-MEL-2.

In general, GI50 refers to the concentration at which growth is held to half of that of the control. As for `c1ccc(-c2c(-c3cccs3)[nH]c(-c3cccs3)c2-c2ccccn2)nc1`, the GI50 is 15.7 µM (inactive) in [1]; 26.2 µM (inactive) in assay [2]; 18 µM (inactive) in assay [3]; 19.7 µM (inactive) in assay [4]; 15.1 µM in [5]; 25.8 µM (inactive) in assay [6]. Also, the GI50 was 22.9 µM (inactive) in [7]; 20 µM (inactive) in assay [8]; 20.5 µM (inactive) in assay [9]; 26.5 µM (inactive) in assay [10]; 22.5 µM (inactive) in assay [11]; 22 µM (inactive) in assay [12]. The GI50 in [13] is 15 µM (inactive); in assay [14], 40.2 µM (inactive); in assay [15], 18.2 µM (inactive); in [16], 11.7 µM (inactive); in assay [17], 17.2 µM (inactive); in assay [18], 22.2 µM (inactive). The GI50 in assay [19] was 13.7 µM (inactive).
On to `CC1=CC(C)(C)NN1C1=NS(=O)(=O)c2ccccc2N1C`, for which the GI50 in assay [1] is > 100 µM (inactive); in assay [2], > 100 µM (inactive); in assay [3], > 100 µM (inactive); in assay [4], > 100 µM (inactive); in assay [5] it was 89.9 µM; in [6], > 100 µM (inactive). Besides, the GI50 in assay [7], in [9], in assay [10], in [11], in assay [12] and in assay [20] was > 100 µM (inactive) in each case. Also, the GI50 in assay [13], in assay [14], in [15], in assay [16], in assay [17] and in [18] was > 100 µM (inactive) each time. Moreover, the GI50 in assay [19] is > 100 µM (inactive).
On to `CN1C(=O)C(=CNc2ccccc2Cl)C(=O)N(C)C1=O`, for which the GI50 is > 100 µM (inactive) in assay [1]; > 100 µM (inactive) in assay [2]; > 100 µM (inactive) in assay [3]; > 100 µM (inactive) in assay [4]; 17.9 µM in assay [5]; > 100 µM (inactive) in assay [6]. For the same compound, the GI50 is > 100 µM (inactive) in [7]; 16.9 µM (inactive) in [8]; 15.1 µM (inactive) in assay [9]; > 100 µM (inactive) in assay [11]; > 100 µM (inactive) in assay [12]; 19.2 µM (inactive) in [20]. Also, the GI50 in assay [13] was > 100 µM (inactive); in [14], > 100 µM (inactive); in [15], 20.1 µM (inactive); in assay [16], 22.2 µM (inactive); in assay [17], > 100 µM (inactive); in assay [18] it was > 100 µM (inactive). In assay [19], the GI50 was > 100 µM (inactive).
In the case of `Oc1ccc(Cl)cc1-c1nc(S)nc(-c2ccccc2)c1Cl`, the GI50 in assay [1] is > 100 µM (inactive); in assay [2], > 100 µM (inactive); in [3], > 10 µM (inactive); in [4], > 64.3 µM (inactive); in assay [5] it was above 100 µM; in assay [6], 69.8 µM (inactive). The GI50 in [8] is > 100 µM (inactive); in assay [9], 45 µM (inactive); in [10], > 100 µM (inactive); in [11] it was 72.4 µM (inactive); in [12] it was > 100 µM (inactive); in assay [20], 69.8 µM (inactive). Besides, the GI50 in [13] was > 100 µM (inactive); in [14] it was 49.1 µM (inactive); in [15], > 100 µM (inactive); in assay [16], > 100 µM (inactive); in [17], > 100 µM (inactive); in assay [18], 44.7 µM (inactive). In assay [19], the GI50 was > 61.7 µM (inactive).
In the case of `C[C@@H](NC(=O)[C@@H]1C[C@]1(C)CO)c1cccc2ccccc12`, the GI50 in [1] was > 100 µM (inactive); in assay [2], > 100 µM (inactive); in assay [3] it was > 100 µM (inactive); in [4], > 100 µM (inactive); in [5], above 100 µM; in [6] it was > 100 µM (inactive). Besides, the GI50 in [7], in assay [8], in [9], in assay [11], in assay [12] and in assay [20] was > 100 µM (inactive) in each case. Moreover, the GI50 in assay [13], in assay [14], in assay [15], in [16], in [17] and in assay [18] was > 100 µM (inactive) each time. In addition, in assay [19], the GI50 is > 100 µM (inactive).
Regarding `O=C1/C(=C/c2cc3c(=O)c4ccccc4sc3s2)NC(=S)N1c1ccccc1`, the GI50 in assay [1] is > 100 µM (inactive); in [2] it was > 100 µM (inactive); in assay [3], > 100 µM (inactive); in assay [4], 55 µM (inactive); in assay [5], above 100 µM; in [7], 48.3 µM (inactive). The GI50 is > 100 µM (inactive) in assay [8]; 15.4 µM (inactive) in assay [9]; 12.2 µM (inactive) in assay [10]; > 100 µM (inactive) in assay [11]; > 100 µM (inactive) in [12]; 78.7 µM (inactive) in assay [20]. Moreover, the GI50 is > 100 µM (inactive) in assay [13]; > 100 µM (inactive) in assay [14]; > 100 µM (inactive) in assay [15]; 40.6 µM (inactive) in [16]; > 100 µM (inactive) in assay [17]; 51.8 µM (inactive) in assay [18]. Moreover, the GI50 in [19] was 91.2 µM (inactive).
`COC(=O)c1ccc(NCC2=CC(=O)C=CC2=O)cc1O`: the GI50 in [1] is 29.4 µM (inactive); in assay [2], 17.9 µM (inactive); in assay [3], 15.7 µM (inactive); in assay [4] it was 28.9 µM (inactive); in assay [5] it was 16.5 µM; in [6], 2.92 µM (inactive). Further, the GI50 is 17.7 µM (inactive) in [7]; 19.9 µM (inactive) in assay [9]; 17.3 µM (inactive) in [11]; 16.2 µM (inactive) in assay [12]; 44.2 µM (inactive) in assay [20]; 13.2 µM (inactive) in assay [13]. The GI50 was 14.4 µM (inactive) in assay [14]; 8.43 µM (inactive) in [15]; 3.33 µM (inactive) in [16]; 18.1 µM (inactive) in assay [17]; 11.4 µM (inactive) in assay [18]; 24.4 µM (inactive) in assay [19].
As for `CCOC(=O)/C=C/CCO[Si](C)(C)C(C)(C)C`, the GI50 is > 100 µM (inactive) in assay [1]; > 100 µM (inactive) in assay [2]; > 100 µM (inactive) in [3]; > 100 µM (inactive) in [4]; above 100 µM in assay [5]; > 100 µM (inactive) in [6]. Further, the GI50 in assay [7], in assay [8], in assay [9], in assay [11], in assay [12] and in assay [20] was > 100 µM (inactive) in each case. In addition, the GI50 in assay [13], in assay [14], in assay [15], in assay [16], in assay [17] and in assay [18] was > 100 µM (inactive) throughout. Moreover, the GI50 in [19] was > 100 µM (inactive).
For the compound `Cc1ccc(C2=CC(=O)/C(=C\C(=O)c3ccc(Cl)cc3)O2)cc1`, the GI50 in assay [1] was 18 µM (inactive); in [2] it was 24.2 µM (inactive); in assay [3], 11.6 µM (inactive); in [4], 17.1 µM (inactive); in assay [5] it was 17.7 µM; in assay [6], 14.1 µM (inactive). Moreover, the GI50 was 70 µM (inactive) in [7]; 2.08 µM (inactive) in [8]; 4.6 µM (inactive) in [9]; 0.902 µM (active) in assay [10]; 16.2 µM (inactive) in assay [11]; 0.1 µM (active) in assay [12]. Besides, the GI50 was 13.3 µM (inactive) in [13]; 3.23 µM (inactive) in [14]; 7.18 µM (inactive) in [15]; 4.15 µM (inactive) in assay [16]; 15.5 µM (inactive) in assay [17]; 1.86 µM (inactive) in [18]. In addition, the GI50 in assay [19] was 14.5 µM (inactive).
In the case of `CN1c2ccccc2S(=O)(=O)n2c(COc3ccccc3)nnc21`, the GI50 in assay [1] was > 100 µM (inactive); in assay [2], > 100 µM (inactive); in assay [3], > 100 µM (inactive); in assay [4], > 100 µM (inactive); in assay [5], above 100 µM; in [6], 56.5 µM (inactive). For the same compound, the GI50 in [7] was > 100 µM (inactive); in [9] it was > 100 µM (inactive); in assay [10] it was 62.5 µM (inactive); in assay [11] it was > 100 µM (inactive); in assay [12], > 100 µM (inactive); in assay [20], > 100 µM (inactive). For the same compound, the GI50 in assay [13] is > 100 µM (inactive); in assay [14] it was > 100 µM (inactive); in [15], > 100 µM (inactive); in assay [16], > 100 µM (inactive); in assay [17] it was > 100 µM (inactive); in [18], 64.4 µM (inactive). The GI50 in assay [19] is > 100 µM (inactive).
Turning to `c1ccc2cc3c(cc2c1)nc1ccccn13`, the GI50 in [1] was > 100 µM (inactive); in [2], > 100 µM (inactive); in [3], > 100 µM (inactive); in assay [4] it was > 100 µM (inactive); in [5], above 100 µM; in assay [6], > 100 µM (inactive). The GI50 in [7], in assay [8], in assay [9], in assay [10], in assay [11] and in assay [12] was > 100 µM (inactive) each time. Besides, the GI50 in assay [13], in assay [14], in assay [15], in [16], in [17] and in assay [18] was > 100 µM (inactive) throughout. For the same compound, the GI50 in [19] was > 100 µM (inactive).
